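48-hour exposure; five concentrations; linearly interpolated endpoints. TGI: concentration producing complete growth inhibition.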
Legend:
Assay in all cases: NCI anticancer screen, dose series, 48 h
CAKI-1 renal = system: CAKI-1 renal
HCT-15 colon = system: HCT-15 colon
HS 578T breast = system: HS 578T breast
K-562 leukemia = system: K-562 leukemia
KM12 colon = system: KM12 colon
M14 melanoma = system: M14 melanoma
NCI-H23 lung = system: NCI-H23 lung
SF-268 CNS = system: SF-268 CNS
SK-MEL-28 melanoma = system: SK-MEL-28 melanoma
UO-31 renal = system: UO-31 renal

SMILES | TGI (CAKI-1 renal) [µM] | TGI (HCT-15 colon) [µM] | TGI (HS 578T breast) [µM] | TGI (K-562 leukemia) [µM] | TGI (KM12 colon) [µM] | TGI (M14 melanoma) [µM] | TGI (NCI-H23 lung) [µM] | TGI (SF-268 CNS) [µM] | TGI (SK-MEL-28 melanoma) [µM] | TGI (UO-31 renal) [µM]
Cc1cc2occ(S(=O)(=O)NC(=O)Nc3ccc(Cl)cc3)c(=O)c2c(=O)o1 | > 100 | > 100 | > 100 | > 100 | > 100 | > 100 | > 100 | > 100 | > 100 | > 100
Cc1ncc(CSC(=N)N)n1Cc1ccccc1 | > 100 | > 100 | > 100 | > 100 | > 100 | > 100 | > 100 | > 100 | > 100 | > 100
COC(=O)[C@@H]1COC(=O)N1 | > 100 | > 100 | > 100 | > 100 | > 100 | > 100 | > 100 | > 100 | > 100 | > 100
Cc1ccc2nc(C(=O)O)c(=O)[nH]c2c1 | > 100 | > 100 | > 100 | > 100 | > 100 | > 100 | > 100 | > 100 | > 100 | > 100
c1ccc(-c2c(-c3[nH]c4ccccc4c3-c3ccccc3)[nH]c3ccccc23)cc1 | 13.8 | 14.3 | 51.6 | 36.8 | 11.8 | 14.9 | 6.68 | 21.5 | 25.7 | 12.7
CC(=O)N1c2cc(N=NN(C)C)ccc2NC(=O)CC1C (stereo not given) | > 100 | > 100 | > 100 | > 100 | > 100 | > 100 | > 100 | > 100 | > 100 | > 100
O=C1C=C/C(=C/[C@H]2SSC=C[C@]23C=CC(=O)C3)C1 | 24.8 | 48.2 | 93.2 | > 100 | 46.6 | > 54.7 | 44.1 | > 85.2 | 42 | 32.5
O=C1c2ccccc2C(=O)c2sc(Nc3cc(Cl)ccc3Cl)nc21 | 11.7 | 9.48 | > 72.3 | > 31.8 | 26.5 | > 42.6 | 28.7 | 21 | 27.3 | 19.4
S=c1[nH]n2c(COc3cc(Cl)c(OCc4nnc5sc(=S)[nH]n45)cc3Cl)nnc2s1 | > 100 | > 100 | > 100 | > 100 | > 100 | > 100 | > 100 | > 100 | > 100 | 86.4
C=CCOC(=O)N1c2ccc(O)cc2[C@@]23O[C@@]24[C@@H]1C#C/C=C\C#C[C@]3(O)C(=O)C[C@@H]4C | > 100 | > 100 | > 100 | > 100 | > 100 | > 100 | > 100 | > 100 | > 100 | > 100
COc1cc2c(cc1OC)C(=O)/C(=C/c1ccc(N(C)C)cc1)CC2 | > 10 | > 10 | > 10 | > 10 | > 10 | > 10 | > 10 | > 10 | > 10 | > 10
CCOC(=O)c1cc2c3c(cc(OC)c2[nH]1)N(C(=O)OCC)CC3 | > 100 | > 100 | > 100 | > 100 | > 100 | > 100 | > 100 | > 100 | > 100 | > 100
Cc1cc(=O)n2nc(CSc3nnc(Sc4cc(O)ccc4O)s3)sc2n1 | > 100 | > 100 | > 100 | 41.1 | > 100 | > 100 | > 100 | > 100 | > 100 | > 100
CC(NNC(=O)c1ccncc1)c1ccc(Cl)cc1Cl (stereo not given) | > 100 | > 100 | > 100 | > 100 | > 100 | > 100 | > 100 | > 100 | > 100 | > 100
Clc1cc2ncn(C3CCCCO3)c2cc1Cl (stereo not given) | > 100 | > 100 | 85.4 | > 100 | > 100 | > 100 | > 100 | > 100 | > 100 | 49.8

Source: PubChem BioAssay (NCI)
